Each structure is given as a SMILES string.

Data on five compounds can be found in patent US9550796B2, “Pyrrolopyrrolone derivatives and their use as BET inhibitors” (NOVARTIS AG, priority 2013, dated 2017).

The target in assay [1] is BRD4 (Homo sapiens (Human), UniProt O60885). The assay can be described thus: TR-FRET in-vitro binding assay for BRD4. The conditions noted are these: 45 nM His-Brd4(44-477), acetyl-histone H4 (AcK 5, 8, 12, 16) peptide. The essentials:
(§1)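 TR-FRET binding read after 35 min incubation at 30° C. Compounds dispensed from 90% DMSO solutions and tested at 8 concentrations in a 13.55 μL total reaction volume.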
For orientation: TR-FRET usually uses a lanthanide donor and a delayed reading to cut background.

Assay [2] concerns the target BRD2 (Homo sapiens (Human), UniProt P25440). Briefly: TR-FRET in-vitro binding assay for BRD2. The conditions noted are these: 45 nM His-Brd2(60-472), acetyl-histone H4 (AcK 5, 8, 12, 16) peptide. Here is the method:
TR-FRET In-Vitro Binding Assays for BRD2, BRD3, and BRD4: All assays were performed in 384-well microtiter plates. […] Liquid handling and incubation steps were done on an Innovadyne Nanodrop Express equipped with a robotic arm (Thermo CatX, Perkin Elmer/Caliper Twister II) and an incubator (Liconic STX40, Thermo Cytomat 2C450). The assay plates were prepared by addition of 50 nl per well of compound solution in 90% DMSO HummingBird nanodispenser (Zinsser Analytic). […] Reactions were incubated at 30° C. for 35 minutes. […] After 35 minutes incubation at 30° C., plates were measured in a Perkin Elmer EnVision multilabel reader. […] The stock solutions were stored at […] if not used immediately. For the test procedure the vials were defrosted and identified by a scanner whereby a working sheet was generated that guided the subsequent working steps. Compound dilutions were made in 96 well plates. This format enabled the assay of maximally […] at 8 concentrations (single points) including 4 reference compounds, if desired (known BET inhibitors from the prior art, for this and other assays of the type disclosed herein). The dilution protocol included the production of “pre-dilution plates”, “master plates” and “assay plates”. Polypropylene 96-well plates were used as pre-dilution plates. […] All dilution steps were done on a HamiltonSTAR robot. […] Identical “assay plates” were then prepared by pipetting 50 nL each of compound dilutions of the “master plates” into 384-well “assay plates” by means of a HummingBird 384-channel dispenser. These plates were used directly for the assay which was performed in a total volume of 13.55 μL.

Assay [3] addresses BRD3 (Homo sapiens (Human), UniProt Q15059). The assay can be described thus: TR-FRET in-vitro binding assay for BRD3. The conditions noted are these: 45 nM His-Brd3(20-477), acetyl-histone H4 (AcK 5, 8, 12, 16) peptide. The method in brief:
as §1

Assay [4] deals with MV-4-11. Briefly: Cell growth inhibition assay (CellTiter-Glo), MV-4-11. The class given is cell-based, human. The conditions noted are these: MV-4-11 cells, 4 days; for GI50: Homo sapiens, MV4-11, 96 h, half-maximal growth inhibition; for MV-4-11 TGI: total growth inhibition. The essentials:
(§2)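 A separate day 0 plate allows cytotoxic and cytostatic effects to be distinguished: viable-cell ATP after 4-day compound treatment (top 10 μM, 3-fold steps) is expressed relative to it. DMSO-only wells count as 100% and medium-only wells as −100%.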

In assay [5] the test system is THP-1. Briefly: Cell growth inhibition assay (CellTiter-Glo), THP-1. The conditions noted are these: THP-1 cells, 4 days; for GI50: Homo sapiens, 96 h, half-maximal growth inhibition; for THP-1 TGI: total growth inhibition. The class given is cell-based, human. The method in brief:
as §2
In general terms: ATP-based viability assays read luminescence as a measure of living cells.

Assay [6] deals with K-562. Briefly: Cell growth inhibition assay (CellTiter-Glo), K-562. The class given is cell-based, human. The conditions noted are these: K-562 cells, 4 days; for GI50: Homo sapiens, K562, 96 h, half-maximal growth inhibition; for K-562 TGI: total growth inhibition. The method in brief: as §2

BRD3, sequence (Q15059 20-477): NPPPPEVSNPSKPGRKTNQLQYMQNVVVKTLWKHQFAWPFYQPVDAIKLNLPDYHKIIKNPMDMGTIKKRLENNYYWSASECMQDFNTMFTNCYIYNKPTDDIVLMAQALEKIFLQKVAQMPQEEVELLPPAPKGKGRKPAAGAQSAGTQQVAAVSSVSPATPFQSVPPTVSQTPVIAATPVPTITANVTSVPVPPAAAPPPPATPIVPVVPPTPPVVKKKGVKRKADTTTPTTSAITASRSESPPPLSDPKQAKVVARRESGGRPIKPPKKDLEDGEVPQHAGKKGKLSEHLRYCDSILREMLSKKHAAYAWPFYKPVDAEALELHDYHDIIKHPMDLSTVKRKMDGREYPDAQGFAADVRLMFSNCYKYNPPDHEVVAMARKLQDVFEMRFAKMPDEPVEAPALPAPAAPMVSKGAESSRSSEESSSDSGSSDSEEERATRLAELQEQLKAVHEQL
BRD2, sequence (P25440 60-472): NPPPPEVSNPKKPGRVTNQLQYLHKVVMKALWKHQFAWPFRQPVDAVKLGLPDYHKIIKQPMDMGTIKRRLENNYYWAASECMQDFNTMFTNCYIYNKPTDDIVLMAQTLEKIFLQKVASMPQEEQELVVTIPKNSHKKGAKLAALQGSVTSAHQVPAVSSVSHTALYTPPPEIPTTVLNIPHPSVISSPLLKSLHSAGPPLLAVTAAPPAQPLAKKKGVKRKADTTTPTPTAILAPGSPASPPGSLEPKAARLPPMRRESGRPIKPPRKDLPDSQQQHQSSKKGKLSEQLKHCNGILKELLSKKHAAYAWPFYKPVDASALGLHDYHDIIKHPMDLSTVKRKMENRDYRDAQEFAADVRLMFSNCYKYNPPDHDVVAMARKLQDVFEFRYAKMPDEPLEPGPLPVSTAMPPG

The term IC50 denotes the concentration that inhibits the measured activity by half. A word on the GI50: it is the concentration giving 50% growth inhibition. High values mean less potent growth inhibition, low ones more potent growth inhibition. In the case of `Cc1cc(N2C(=O)c3cc(-c4ccnc(C(F)(F)F)n4)n(C)c3C2c2ccc(Cl)cc2)cn(C)c1=O` (stereo not drawn) [Example 49, 6-(4-chlorophenyl)-5-(1,5-dimethyl-6-oxo-1,6-dihydropyridin-3-yl)-1-methyl-2-(2-(trifluoromethyl)pyrimidin-4-yl)-5,6-dihydropyrrolo[3,4-b]pyrrol-4(1H)-one], the results for the IC50 in assay [1], in assay [2] and in assay [3] were 83 nM, 76 nM and 75 nM, respectively. For the same compound, the GI50 came to 92.3 nM in assay [4], 169 nM in assay [5] and 386 nM in assay [6]. Moreover, in assay [4], the “MV-4-11 TGI” value stood at 134 nM. Besides, in assay [5], the “THP-1 TGI” value was 301 nM. Besides, in assay [6], the “K-562 TGI” value was above 10000 nM.

As for `Cc1cc(N2C(=O)c3cc(-c4cnc(N(C)C)nc4)n(C)c3C2c2ccc(Cl)cc2)cn(C)c1=O` (stereo not drawn) [Example 57, 6-(4-chlorophenyl)-5-(1,5-dimethyl-6-oxo-1,6-dihydropyridin-3-yl)-2-(2-(dimethylamino)pyrimidin-5-yl)-1-methyl-5,6-dihydropyrrolo[3,4-b]pyrrol-4(1H)-one], the IC50 in assay [1] was 59 nM; in assay [2], 50 nM; in assay [3] it was 54 nM. The GI50 worked out at 37.6 nM in assay [4], 76 nM in assay [5] and 200 nM in assay [6]. Further, the “MV-4-11 TGI” value in assay [4] is 59.8 nM. Further, in assay [5], the “THP-1 TGI” value was 126 nM. The “K-562 TGI” value in assay [6] is above 10000 nM.

`Cc1cc(N2C(=O)c3c(C4CC4)cn(C4CN(C)C4)c3C2c2ccc(Cl)cc2)nc2c1nnn2C` (stereo not drawn) [Example 106, 6-(4-chlorophenyl)-3-cyclopropyl-5-(3,7-dimethyl-3H-[1,2,3]triazolo[4,5-b]pyridin-5-yl)-1-(1-methylazetidin-3-yl)-5,6-dihydropyrrolo[3,4-b]pyrrol-4(1H)-one]: the results for the IC50 in assay [1], in assay [2] and in assay [3] were 12 nM, 13 nM and 12 nM, respectively. The GI50 in assay [4] came to 0.522 nM; in assay [5] it was 1.16 nM; in assay [6], 5.68 nM. Further, in assay [4], the “MV-4-11 TGI” value came to 2.23 nM. In assay [5], the “THP-1 TGI” value came to 3.335 nM. Besides, in assay [6], the “K-562 TGI” value is above 10000 nM.

`Cc1cc(N2C(=O)c3cc(-c4cccn(C)c4=O)n(C4CC4)c3C2c2ccc(Cl)cc2)cn(C)c1=O` (stereo not drawn) [Example 65, 6-(4-chlorophenyl)-1-cyclopropyl-5-(1,5-dimethyl-6-oxo-1,6-dihydropyridin-3-yl)-2-(1-methyl-2-oxo-1,2-dihydropyridin-3-yl)-5,6-dihydropyrrolo[3,4-b]pyrrol-4(1H)-one]: the IC50 was 220 nM in assay [1], 120 nM in assay [2] and 200 nM in assay [3]. The GI50 in assay [4] was 80.4 nM; in assay [5], 96.2 nM; in assay [6], 270 nM. Besides, the “MV-4-11 TGI” value in assay [4] amounted to 128.5 nM. For the same compound, the “THP-1 TGI” value in assay [5] stood at 167.5 nM. For the same compound, the “K-562 TGI” value in assay [6] was above 10000 nM.

As for `Cc1cc(N2C(=O)c3cc(-c4cccc(N(C)C)n4)n(C)c3C2c2ccc(Cl)cc2)cn(C)c1=O` (stereo not drawn) [Example 51, 6-(4-chlorophenyl)-5-(1,5-dimethyl-6-oxo-1,6-dihydropyridin-3-yl)-2-(6-(dimethylamino)pyridin-2-yl)-1-methyl-5,6-dihydropyrrolo[3,4-b]pyrrol-4(1H)-one], the IC50 in assay [1] amounted to 33 nM; in assay [2] it was 32 nM; in assay [3] it was 38 nM. In addition, the results for the GI50 in assay [4], in assay [5] and in assay [6] were 88.1 nM, 104 nM and 449 nM, respectively. In addition, the “MV-4-11 TGI” value in assay [4] came to 116 nM. Besides, the “THP-1 TGI” value in assay [5] came to 165 nM. For the same compound, in assay [6], the “K-562 TGI” value is above 10000 nM.
